Molecules are shown by their SMILES.

T1 sequence (O00329 whole entry): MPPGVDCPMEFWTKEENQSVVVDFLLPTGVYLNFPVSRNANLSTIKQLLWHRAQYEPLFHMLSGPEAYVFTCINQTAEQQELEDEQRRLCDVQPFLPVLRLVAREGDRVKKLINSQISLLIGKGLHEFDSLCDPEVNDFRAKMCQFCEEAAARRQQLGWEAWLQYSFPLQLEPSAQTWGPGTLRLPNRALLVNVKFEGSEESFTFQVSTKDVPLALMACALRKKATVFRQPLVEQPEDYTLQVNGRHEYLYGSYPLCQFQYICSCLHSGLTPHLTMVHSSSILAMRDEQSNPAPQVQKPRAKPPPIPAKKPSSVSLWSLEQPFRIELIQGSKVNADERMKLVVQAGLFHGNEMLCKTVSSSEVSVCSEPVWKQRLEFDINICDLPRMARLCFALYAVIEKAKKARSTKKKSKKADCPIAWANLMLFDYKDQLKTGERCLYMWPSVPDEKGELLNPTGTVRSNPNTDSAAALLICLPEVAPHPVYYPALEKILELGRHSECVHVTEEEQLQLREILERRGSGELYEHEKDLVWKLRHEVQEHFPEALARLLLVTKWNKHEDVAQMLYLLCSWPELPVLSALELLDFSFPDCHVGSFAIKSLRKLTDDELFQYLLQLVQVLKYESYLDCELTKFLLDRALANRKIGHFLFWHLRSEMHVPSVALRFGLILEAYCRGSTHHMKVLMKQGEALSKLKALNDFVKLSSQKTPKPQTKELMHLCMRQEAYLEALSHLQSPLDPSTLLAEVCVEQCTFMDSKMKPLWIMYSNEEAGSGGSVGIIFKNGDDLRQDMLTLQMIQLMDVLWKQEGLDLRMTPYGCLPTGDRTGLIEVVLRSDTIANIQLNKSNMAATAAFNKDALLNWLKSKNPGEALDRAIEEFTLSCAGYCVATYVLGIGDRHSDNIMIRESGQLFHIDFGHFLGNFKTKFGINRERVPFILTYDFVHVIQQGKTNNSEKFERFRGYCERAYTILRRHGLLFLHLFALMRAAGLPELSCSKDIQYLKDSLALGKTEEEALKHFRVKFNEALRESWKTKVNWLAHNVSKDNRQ
T1 sequence (P27986 whole entry partner): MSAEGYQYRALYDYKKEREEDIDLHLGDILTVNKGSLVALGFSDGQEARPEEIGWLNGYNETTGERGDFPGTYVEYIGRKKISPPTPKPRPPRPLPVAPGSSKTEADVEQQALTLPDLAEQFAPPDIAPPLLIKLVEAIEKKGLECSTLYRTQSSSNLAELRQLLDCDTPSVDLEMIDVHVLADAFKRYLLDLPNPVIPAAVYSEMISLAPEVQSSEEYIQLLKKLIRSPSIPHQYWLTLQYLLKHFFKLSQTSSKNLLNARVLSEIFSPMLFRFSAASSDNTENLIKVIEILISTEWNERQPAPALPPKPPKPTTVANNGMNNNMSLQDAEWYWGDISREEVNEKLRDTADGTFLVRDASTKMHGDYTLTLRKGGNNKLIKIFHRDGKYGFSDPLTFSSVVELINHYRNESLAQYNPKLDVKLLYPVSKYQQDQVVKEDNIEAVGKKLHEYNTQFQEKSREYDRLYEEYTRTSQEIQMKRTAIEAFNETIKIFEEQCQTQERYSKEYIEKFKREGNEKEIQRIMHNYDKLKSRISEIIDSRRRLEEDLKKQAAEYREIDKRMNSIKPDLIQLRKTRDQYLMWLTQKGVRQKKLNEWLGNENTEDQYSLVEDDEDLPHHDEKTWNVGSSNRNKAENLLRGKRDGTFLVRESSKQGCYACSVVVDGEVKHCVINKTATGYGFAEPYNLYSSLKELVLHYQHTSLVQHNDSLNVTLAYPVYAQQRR

The first assay addresses T1, PI3Kδ (Homo sapiens, UniProt O00329).
T1 construct: The protein is full length and co-expressed with untagged PIK3R1; GST; purchased Invitrogen PV5274
Description: PI3Kδ inhibition, modified PIK3CD Adapta TR-FRET assay. Type of assay: biochemical. The following applies: recombinant GST-tagged full length PIK3CD co-expressed with PIK3R1 (p85α); 2 μM ATP, 50 μM PIP2. The protocol: The activity of compounds as PI3Kδ inhibitors may be determined by a variety of methods, including in vitro and in vivo methods. The following in vitro assay measures a test compound's ability to inhibit PI3Kδ-mediated phosphorylation of PIP2 and ATP.
Recombinant GST-tagged PIK3CD is purchased from Invitrogen (Part Number: PV5274). The protein is full length and co-expressed with untagged PIK3R1, phosphoinositide-3-kinase regulatory subunit 1 (p85α). The protein is stored at −20° C. in 50 mM TRIS (pH 7.5), 150 mM NaCl, 0.5 mM EDTA, 0.02% Triton® X-100, 2 mM DTT, and 50% glycerol.
A modified PIK3CD Adapta® assay (Invitrogen, Carlsbad, Calif.) is used to measure PI3Kδ inhibition of the example compounds. The assay has two phases. In the first phase, kinase reaction components, which include the enzyme (PIK3CD), substrates (PIP2, ATP), test compound (inhibitor), and assay buffer are added to each well, and the reaction is allowed to incubate for a pre-determined period of time. […] In the presence of the inhibitor, the amount of ADP formed by the kinase reaction is reduced, and the resulting intact antibody-tracer interaction maintains a high TR-FRET signal.
The reaction buffer contains 50 mM Hepes (pH 7.5), 3 mM MgCl2, 1 mM EGTA, 100 mM NaCl, 0.03% CHAPS; 2 mM DTT is added fresh prior to each experiment. […] Next, test compounds (2 μL) from a source plate (5% dilution plate) are introduced into the wells. The final DMSO concentration in each assay well is 1%. […] Other wells contain test compounds serially diluted across the plate 11 times for a total of 12 data points. The kinase reactions are carried out at room temperature and are initiated by the addition of 4 μL of solution containing 2 μM ATP and 50 μM PIP2. […] This emission signal is referenced or “ratioed” to the emission from Eu at 620 nm. […] The percent inhibition for a given inhibitor concentration is computed from % conversion for the reaction and for the positive and negative controls.
Take `CNC(=O)Nc1ccc(-c2ncc3c(n2)N2CCOC[C@@H]2C(=O)N3[C@@H](C)c2ccc(C)cc2)cc1` (single isomer, unassigned) [Example 87]: the “PI3Kδ Inhibition (pIC50)” value is reported as 7.1.

Still in this assay, the particulars now being: recombinant GST-tagged full length PIK3CD co-expressed with PIK3R1 (p85α); 2 μM ATP, 50 μM PIP2; read-out: PI3Kδ Inhibition (pIC50) (converted).
Take `O=C(CN1C[C@@H]2COCCN2c2nc(-n3c(C(F)F)nc4ccccc43)ncc21)NCC1CCOCC1` [Example 211, (R)-2-(2-(2-(difluoromethyl)-1H-benzo[d]imidazol-1-yl)-6a,7,9,10-tetrahydro-[1,4]oxazino[3,4-h]pteridin-5(6H)-yl)-N-((tetrahydro-2H-pyran-4-yl)methyl)acetamide]: the IC50 was 20 nM.
In the case of `c1cc(-c2ncc3c(n2)N2CCOC[C@H]2CN3C2CCOCC2)c2cc[nH]c2c1` [Example 192, (R)-2-(1H-indol-4-yl)-5-(tetrahydro-2H-pyran-4-yl)-5,6,6a,7,9,10-hexahydro-[1,4]oxazino[3,4-h]pteridine], the IC50 is 3.16 nM.
Turning to `CS(=O)(=O)c1ccc(CN2C(=O)C3COCCN3c3nc(-c4cnc5cc[nH]c5c4)ncc32)cc1` (centres unmarked) [Example 121, 5-(4-(methylsulfonyl)benzyl)-2-(1H-pyrrolo[3,2-b]pyridin-6-yl)-6a,7,9,10-tetrahydro-[1,4]oxazino[3,4-h]pteridin-6(5H)-one], the IC50 is 31.6 nM.
Still for that read-out and setting: the result for `Cc1cccc(CN2CC3COCCN3c3nc(-c4cccc5[nH]ccc45)ncc32)n1` (centres unmarked) [Example 80] reads 63.1 nM; that for `CCc1nnc(CN2C[C@@H]3COCCN3c3nc(-c4ccc(O)nc4)ncc32)o1` [Example 168, (R)-5-(5-((5-ethyl-1,3,4-oxadiazol-2-yl)methyl)-5,6,6a,7,9,10-hexahydro-[1,4]oxazino[3,4-h]pteridin-2-yl)pyridin-2-ol], greater than 10000 nM; that for `OC1CCC(N2C[C@@H]3COCCN3c3nc(-c4cccc5[nH]ccc45)ncc32)CC1` (stereo partly drawn) [Example 189, (R)-4-(2-(1H-indol-4-yl)-6a,7,9,10-tetrahydro-[1,4]oxazino[3,4-h]pteridin-5(6H)-yl)cyclohexanol], 7.94 nM.
On to `O=C1Nc2cnc(-c3cccc4[nH]ccc34)nc2N2CCOC[C@H]12` (single isomer, unassigned) [Example 149], for which the IC50 was 200 nM.
Consider `O=C(CN1C[C@@H]2COCCN2c2nc(-c3cccc4[nH]ccc34)ncc21)NCC1CCOCC1` [Example 73, (R)-2-(2-(1H-indol-4-yl)-6a,7,9,10-tetrahydro-[1,4]oxazino[3,4-h]pteridin-5(6H)-yl)-N-((tetrahydro-2H-pyran-4-yl)methyl)acetamide], for which the IC50 is 20 nM.
`CC(C)(O)CCN1C[C@@H]2COCCN2c2nc(-c3cccc4[nH]ccc34)ncc21` [Example 169, (R)-4-(2-(1H-indol-4-yl)-6a,7,9,10-tetrahydro-[1,4]oxazino[3,4-h]pteridin-5(6H)-yl)-2-methylbutan-2-ol]: the IC50 was 7.94 nM.
Consider `c1ccc(-c2nnc(CN3CC4COCCN4c4nc(-c5cccc6[nH]ccc56)ncc43)o2)cc1` (centres unmarked) [Example 38, 2-(1H-indol-4-yl)-5-((5-phenyl-1,3,4-oxadiazol-2-yl)methyl)-5,6,6a,7,9,10-hexahydro-[1,4]oxazino[3,4-h]pteridine], for which the IC50 was 12.6 nM.
As to `CS(=O)(=O)c1cccc(N2C[C@@H]3COCCN3c3nc(-c4cccc5[nH]ccc45)ncc32)c1` [Example 191, (R)-2-(1H-indol-4-yl)-5-(3-(methylsulfonyl)phenyl)-5,6,6a,7,9,10-hexahydro-[1,4]oxazino[3,4-h]pteridine], the IC50 was 3.16 nM.
In the case of `CS(=O)(=O)c1ccc(CN2C(=O)C3COCCN3c3nc(-c4cccc5[nH]cnc45)ncc32)cc1` (centres unmarked) [Example 139, 2-(1H-benzo[d]imidazol-4-yl)-5-(4-(methylsulfonyl)benzyl)-6a,7,9,10-tetrahydro-[1,4]oxazino[3,4-h]pteridin-6(5H)-one], the IC50 was 79.4 nM.
Turning to `NC(=O)c1ccccc1CN1CC2COCCN2c2nc(-c3cccc4[nH]ccc34)ncc21` (centres unmarked) [Example 74, 2-((2-(1H-indol-4-yl)-6a,7,9,10-tetrahydro-[1,4]oxazino[3,4-h]pteridin-5(6H)-yl)methyl)benzamide], the IC50 was 63.1 nM.
As for `CNC(=O)Nc1ccc(-c2ncc3c(n2)N2CCOCC2C(=O)N3[C@@H](C)c2ccc(Cl)cc2)cc1` (single isomer, unassigned) [Example 85], the IC50 is 12.6 nM.
As for `CCc1cc(CN2C[C@@H]3COCCN3c3nc(-c4cccc5[nH]ccc45)ncc32)on1` [Example 188, (R)-5-((3-ethylisoxazol-5-yl)methyl)-2-(1H-indol-4-yl)-5,6,6a,7,9,10-hexahydro-[1,4]oxazino[3,4-h]pteridine], the IC50 is 39.8 nM.
With `N#Cc1ccc(F)cc1CN1CC2COCCN2c2nc(-c3cccc4[nH]ccc34)ncc21` (centres unmarked) [Example 46, 2-((2-(1H-indol-4-yl)-6a,7,9,10-tetrahydro-[1,4]oxazino[3,4-h]pteridin-5(6H)-yl)methyl)-4-fluorobenzonitrile], the IC50 was 316 nM.
Regarding `N[C@H]1CC[C@H](CN2CC3COCCN3c3nc(-c4cccc5[nH]ccc45)ncc32)CC1` (some centres unmarked) [Example 58, (1r,4r)-4-((2-(1H-indol-4-yl)-6a,7,9,10-tetrahydro-[1,4]oxazino[3,4-h]pteridin-5(6H)-yl)methyl)cyclohexanamine], the IC50 is 501 nM.
Same read-out and setting: the result for `COC(=O)c1cncc(N2C[C@@H]3COCCN3c3nc(-c4cccc5[nH]ccc45)ncc32)c1` [Example 199, (R)-methyl 5-(2-(1H-indol-4-yl)-6a,7,9,10-tetrahydro-[1,4]oxazino[3,4-h]pteridin-5(6H)-yl)nicotinate] reads 1000 nM; that for `CS(=O)(=O)c1ccc(CN2CC3COCCN3c3nc(-c4ccc(F)c5[nH]ccc45)ncc32)cc1` (centres unmarked) [Example 17, 2-(7-fluoro-1H-indol-4-yl)-5-(4-(methylsulfonyl)benzyl)-5,6,6a,7,9,10-hexahydro-[1,4]oxazino[3,4-h]pteridine], 39.8 nM.
Same read-out and setting: the value for `Cc1ccc([C@H](C)N2C(=O)[C@@H]3COCCN3c3nc(-c4cccc5[nH]ccc45)ncc32)cc1` (single isomer, unassigned) [Example 153] was 39.8 nM; that for `COc1ccc(CC(=O)N2CC3COCCN3c3nc(-c4cccc5[nH]ccc45)ncc32)cc1` (centres unmarked) [Example 20, 1-(2-(1H-indol-4-yl)-6a,7,9,10-tetrahydro-[1,4]oxazino[3,4-h]pteridin-5(6H)-yl)-2-(4-methoxyphenyl)ethanone] was 501 nM.
Same read-out and setting: the result for `CNC(=O)Nc1ccc(-c2ncc3c(n2)N2CCOCC2C(=O)N3[C@@H](C)c2ccc(Cl)cc2)cc1` (single isomer, unassigned) [Example 161] reads 3.98 nM; that for `CS(=O)(=O)c1ccc(CN2C(=O)C3COCCN3c3nc(-c4cccc(C(N)=O)c4)ncc32)cc1` (centres unmarked) [Example 113, 3-(5-(4-(methylsulfonyl)benzyl)-6-oxo-5,6,6a,7,9,10-hexahydro-[1,4]oxazino[3,4-h]pteridin-2-yl)benzamide], 501 nM; that for `O=C(OCc1ccccc1)N1CC2COCCN2c2nc(-c3cccc4[nH]ccc34)ncc21` (centres unmarked) [Example 53, benzyl 2-(1H-indol-4-yl)-6a,7,9,10-tetrahydro-[1,4]oxazino[3,4-h]pteridine-5(6H)-carboxylate], 251 nM.
Consider `CNC(=O)Nc1ccc(-c2ncc3c(n2)N2CCOCC2C(=O)N3Cc2ccc(S(C)(=O)=O)cc2Cl)cc1` (centres unmarked) [Example 95, 1-(4-(5-(2-chloro-4-(methylsulfonyl)benzyl)-6-oxo-5,6,6a,7,9,10-hexahydro-[1,4]oxazino[3,4-h]pteridin-2-yl)phenyl)-3-methylurea], for which the IC50 is 0.794 nM.
`CC(C)N(C)C(=O)CN1CC2COCCN2c2nc(-c3cccc4[nH]ccc34)ncc21` (centres unmarked) [Example 44, 2-(2-(1H-indol-4-yl)-6a,7,9,10-tetrahydro-[1,4]oxazino[3,4-h]pteridin-5(6H)-yl)-N-isopropyl-N-methylacetamide]: the IC50 is 316 nM.
`CS(=O)(=O)c1ccc(CN2CC3COCCN3c3nc(-c4cncc5[nH]ccc45)ncc32)cc1` (centres unmarked) [Example 23, 5-(4-(methylsulfonyl)benzyl)-2-(1H-pyrrolo[2,3-c]pyridin-4-yl)-5,6,6a,7,9,10-hexahydro-[1,4]oxazino[3,4-h]pteridine]: the IC50 was 5.01 nM.
In the case of `CNC(=O)c1ccc(-c2ncc3c(n2)N2CCOCC2C(=O)N3Cc2ccc(S(C)(=O)=O)cc2)cn1` (centres unmarked) [Example 109, N-methyl-5-(5-(4-(methylsulfonyl)benzyl)-6-oxo-5,6,6a,7,9,10-hexahydro-[1,4]oxazino[3,4-h]pteridin-2-yl)picolinamide], the IC50 is 7940 nM.

Source of the values: patent US8791107B2, “N-substituted oxazinopteridines and oxazinopteridinones” (Takeda Pharmaceutical Company Limited, priority 2011, dated 2014).
